Results on five molecules are retold here after US5496697A, “Methods and apparatus for detecting the effect of cell affecting agents on living cells” (priority 1993, dated 1996).

Some results are limits rather than exact numbers.

The subject of experiment [1] is L cells.
The test system of experiment [2] is L cells. As to the kind of experiment: cells. To be noted: Mus musculus, 8 min, read-out: peak metabolic activity.
Experiment [3] deals with vesicular stomatitis virus (VSV). It counts as cell-based. To be noted: VSV-infected L cells, FIGS. 36-39.
The test system of a further experiment is MDCK cells. As to the kind of experiment: metabolic rate of MDCK cells exposed to MgCl. It counts as cell-based, canine. To be noted: 10 mM MgCl.
In experiment [4] the target is T1, rat M1 muscarinic receptor (Rattus norvegicus, UniProt P08482).
T1 sequence (P08482 1-460): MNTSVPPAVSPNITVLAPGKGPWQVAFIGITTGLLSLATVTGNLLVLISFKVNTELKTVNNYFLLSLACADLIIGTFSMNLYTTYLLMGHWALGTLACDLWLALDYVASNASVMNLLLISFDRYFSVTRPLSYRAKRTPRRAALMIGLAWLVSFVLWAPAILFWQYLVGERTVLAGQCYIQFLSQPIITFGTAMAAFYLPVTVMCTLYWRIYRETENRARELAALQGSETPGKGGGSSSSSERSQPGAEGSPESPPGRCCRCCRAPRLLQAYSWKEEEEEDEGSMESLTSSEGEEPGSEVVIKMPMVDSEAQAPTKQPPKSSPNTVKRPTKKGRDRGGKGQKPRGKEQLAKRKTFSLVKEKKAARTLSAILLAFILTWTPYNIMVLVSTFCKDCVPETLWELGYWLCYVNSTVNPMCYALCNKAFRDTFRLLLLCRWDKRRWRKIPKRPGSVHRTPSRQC
As to the kind of experiment: metabolic rate of M1C-2 cells (B82 cells transfected with rat M1 muscarinic receptor). To be noted: atropine alone, FIG. 28.

Experiment [5] has as its system normal human keratinocytes. As to the kind of experiment: metabolic rate of EGF-starved normal human keratinocytes. It counts as cell-based. The method, then: Normal human keratinocytes require epidermal growth factor (EGF) for proliferation without differentiation. Keratinocytes (from Clonetics, Inc.) were cultured in the absence of EGF for a period of 24 hours prior to the experiment. For the experiment, the keratinocytes were assembled into four flow chambers and the alternating stop-flow sequence was initiated with medium containing no EGF. At the time indicated by the arrow in FIG. 43, the syringes containing medium were changed on all four flow chambers. The second medium contained 5 ng/ml mouse EGF, or 1.25 μg/ml of a neutralizing rabbit anti-mouse-EGF polyclonal IgC, or both. A control with no EGF or IgC was also run. […] Addition of the anti-EGF antibody alone had no effect.
In a separate experiment, the growth medium for the normal human epidermal keratinocytes contained 10 ng/mL murine EGF, a substance found to be mitogenic for keratinocytes. […] It does show the same rising baseline, which probably indicates some combination of cell proliferation and adaptation to the environmental conditions in the flow chamber.
Stimulation of acidification rate was observable down to 0.1 ng/mL EGF. In a control experiment, the stimulation was abolished by a monoclonal antibody to EGF that is known to block receptor binding.

The subject of experiment [6] is mouse and human fibroblasts. To be noted: previously reported; cited from earlier work.

`CC(C)[C@@H]1NC(=O)[C@H](C)OC(=O)[C@@H](C(C)C)NC(=O)[C@@H](C(C)C)OC(=O)[C@H](C(C)C)NC(=O)[C@H](C)OC(=O)[C@@H](C(C)C)NC(=O)[C@@H](C(C)C)OC(=O)[C@H](C(C)C)NC(=O)[C@H](C)OC(=O)[C@@H](C(C)C)NC(=O)[C@@H](C(C)C)OC1=O` [valinomycin]: in the experiment on L cells [1], the “peak metabolic rate relative to the initial rate” value was “more than double the initial rate”, the “time of return of metabolic activity approximately to the initial value” is at most 20 min and the “time to peak of metabolic activity” value is given as “four”. For the same molecule, the fold induction at 100 µM with L cells [2] is around 2.4.
Turning to `NC(=O)c1ncn([C@@H]2O[C@H](CO)[C@@H](O)[C@H]2O)n1` [ribavirin], the “effect on VSV-induced change of host cell metabolism” value in experiment [3] is recorded as “inhibition”.
In the case of `[Cl-].[Cl-].[Mg+2]` [MgCl, magnesium chloride], the “increase in metabolic rate vs. medium only” value in the experiment with MDCK cells is recorded as 40-46%.
Turning to `CN1[C@@H]2CC[C@H]1C[C@@H](OC(=O)C(CO)c1ccccc1)C2` (some centres unmarked) [Atropine], in experiment [4], the “effect on cells alone” value was “no significant effect”.
Consider “EGF: epidermal growth factor (mouse EGF) (NSYPGCPSSYDGYCLNGGVCMHIESLDSYTCNCVIGYSGDRCQTRDLRWWELR; Epidermal growth factor; UniProt P01132 977-1029, looked up)”, for which the “metabolic response of keratinocytes to EGF” value in experiment [5] (5 ng/ml mouse EGF, FIG. 43) is on record as “metabolic burst”. In experiment [5] (50 ng/mL EGF, FIG. 44), the “metabolic rate at the peak” value is recorded as “nearly doubled”, the “time from peak to decay to a steadily rising baseline” value is 15 min, the “time to peak of response” value is ~ 15 min and the “time to rise in metabolic rate” value is recorded as at most 5 min. In addition, in experiment [5] (EGF), the “lowest concentration with observable stimulation of acidification rate” value was determined as 0.1 ng/mL. For the same molecule, the “effect on glycolytic rate” value in experiment [6] was “rapid increase in glycolytic rate”.
